From ChEMBL document CHEMBL4311991, “Design, synthesis, and biological evaluation of 1-substituted -2-aryl imidazoles targeting tubulin polymerization as potential anticancer agents” (Eur J Med Chem, 2019) come the findings set out here.

The subject of one experiment is MDA-MB-468. Nature of the experiment: Antiproliferative activity against human MDA-MB-468 cells assessed as reduction in cell viability after 72 hrs by MTT assay. The class given is functional, cell-based. The following applies: MDA-MB-468, 72 h.
The subject of a further experiment is MDA-MB-231. Nature of the experiment: Antiproliferative activity against human MDA-MB-231 cells assessed as reduction in cell viability after 72 hrs by MTT assay. The class given is functional, cell-based. The following applies: MDA-MB-231, 72 h.
A further experiment deals with T47D. Nature of the experiment: Antiproliferative activity against human T47D cells assessed as reduction in cell viability after 72 hrs by MTT assay. The class given is functional, cell-based.
For the next experiment, the system named is HCT-15. Nature of the experiment: Antiproliferative activity against human HCT15 cells assessed as reduction in cell viability after 72 hrs by MTT assay. The class given is functional, cell-based. Conditions: HCT-15, 72 h.
In a further experiment the test system is HT-29. The experiment can be described thus: Antiproliferative activity against human HT-29 cells assessed as reduction in cell viability after 72 hrs by MTT assay. Conditions: HT-29, 72 h. The class given is functional, cell-based.
For the next experiment, the system named is HeLa. The experiment can be described thus: Antiproliferative activity against human HeLa cells assessed as reduction in cell viability after 72 hrs by MTT assay. The class given is functional, cell-based.
The next experiment relates to HUVEC. The experiment can be described thus: Cytotoxicity against HUVEC assessed as reduction in cell viability after 72 hrs by MTT assay. The class given is cell-based. The following applies: Homo sapiens.

`COc1ccc(NC(=O)c2cc(OC)c(OC)c(OC)c2)cc1[N+](=O)[O-]`: the IC50 in the experiment with MDA-MB-468 is 2.9 µM; in the experiment on MDA-MB-231, 31 µM; in the experiment on T47D, 34.5 µM; in the experiment on HCT-15, 17.6 µM; in the experiment on HT-29, 9.7 µM; with HeLa it was 38.7 µM.
For `COc1cc(-c2nccn2-c2cccc(C)c2)cc(OC)c1OC`, the IC50 with MDA-MB-468 turned out to be 22.6 µM; in the experiment on MDA-MB-231, 11.7 µM; in the experiment on T47D, 29.3 µM; in the experiment on HCT-15 it was 1.6 µM; in the experiment on HT-29, 14.6 µM; with HeLa, 1.9 µM. The IC50 in the experiment on HUVEC is greater than 100 µM.
`COc1ccc(C(=O)Nc2cc(OC)c(OC)c(OC)c2)cc1N`: the IC50 with MDA-MB-468 was greater than 100 µM; in the experiment on MDA-MB-231 it was 94.2 µM; with T47D, greater than 100 µM; in the experiment on HCT-15, greater than 100 µM; in the experiment with HT-29, greater than 100 µM; in the experiment on HeLa it was greater than 100 µM.
For the molecule `CCn1ccnc1-c1cc(OC)c(OC)c(OC)c1`, the IC50 with MDA-MB-468, with MDA-MB-231, with T47D, in the experiment on HCT-15, in the experiment with HT-29 and with HeLa was greater than 100 µM throughout.
Regarding `COc1cc(-c2nccn2S(=O)(=O)c2ccc(C)cc2)cc(OC)c1OC`, the IC50 with MDA-MB-468, with MDA-MB-231, with T47D, with HCT-15, with HT-29 and with HeLa was greater than 100 µM throughout.
In the case of `COc1cc(-c2nccn2-c2cccc3ccccc23)cc(OC)c1OC`, the IC50 in the experiment with MDA-MB-468 amounted to 6.2 µM; in the experiment on MDA-MB-231, 8 µM; in the experiment with T47D it was 15 µM; in the experiment with HCT-15, 25.4 µM; in the experiment on HT-29 it was 14.7 µM; in the experiment with HeLa, 31 µM.
As to `COc1cc(-c2nccn2C)cc(OC)c1OC`, the IC50 in the experiment on MDA-MB-468, in the experiment with MDA-MB-231, with T47D, in the experiment with HCT-15, in the experiment on HT-29 and in the experiment on HeLa was greater than 100 µM in each case.
For `COc1cc(-c2nccn2CC(C)C)cc(OC)c1OC`, the IC50 with MDA-MB-468, with MDA-MB-231, with T47D, in the experiment with HCT-15, in the experiment with HT-29 and in the experiment with HeLa was greater than 100 µM throughout.
As to `COc1ccc(OC(=O)c2cc(OC)c(OC)c(OC)c2)cc1N`, the IC50 with MDA-MB-468, with MDA-MB-231, in the experiment on T47D, in the experiment on HCT-15, in the experiment on HT-29 and with HeLa was greater than 100 µM throughout.
With `COc1ccc(NC(=O)c2cc(OC)c(OC)c(OC)c2)cc1N`, the IC50 in the experiment on MDA-MB-468 worked out at 2 µM; with MDA-MB-231 it was 18.6 µM; with T47D, 50.4 µM; in the experiment on HCT-15, 6.5 µM; in the experiment with HT-29, 1.2 µM; in the experiment on HeLa, 4.1 µM.
For the molecule `COc1ccc(-n2ccnc2-c2cc(OC)c(OC)c(OC)c2)cc1[N+](=O)[O-]`, the IC50 is 0.1 µM with MDA-MB-468; 7.5 µM in the experiment on MDA-MB-231; 10 µM in the experiment with T47D; 1 µM in the experiment on HCT-15; 0.6 µM in the experiment with HT-29; 2.5 µM with HeLa.
In the case of `CCCn1ccnc1-c1cc(OC)c(OC)c(OC)c1`, the IC50 with MDA-MB-468, with MDA-MB-231, in the experiment on T47D, in the experiment with HCT-15, in the experiment with HT-29 and with HeLa was greater than 100 µM each time.
`COc1cc(-c2nccn2S(=O)(=O)c2ccccc2)cc(OC)c1OC`: the IC50 in the experiment on MDA-MB-468, in the experiment with MDA-MB-231, with T47D, with HCT-15, with HT-29 and with HeLa was greater than 100 µM in each case.
Take `COc1ccc(C(=O)Oc2cc(OC)c(OC)c(OC)c2)cc1[N+](=O)[O-]`: the IC50 in the experiment on MDA-MB-468 was 35.2 µM; in the experiment on MDA-MB-231, greater than 100 µM; in the experiment with T47D, 29.6 µM; in the experiment on HCT-15, greater than 100 µM; in the experiment with HT-29 it was greater than 100 µM; in the experiment with HeLa, greater than 100 µM.
For `COc1cc(-c2nccn2Cc2ccccc2)cc(OC)c1OC`, the IC50 in the experiment with MDA-MB-468, in the experiment with MDA-MB-231, with T47D, in the experiment on HCT-15, in the experiment with HT-29 and in the experiment on HeLa was greater than 100 µM throughout.
As for `COc1cc(-c2nccn2C(C)C)cc(OC)c1OC`, the IC50 in the experiment on MDA-MB-468, in the experiment with MDA-MB-231, in the experiment with T47D, with HCT-15, in the experiment with HT-29 and with HeLa was greater than 100 µM each time.
On to `COc1cc(-c2nccn2-c2ccc3sccc3c2)cc(OC)c1OC`, for which the IC50 amounted to 0.4 µM with MDA-MB-468; 16.8 µM in the experiment with MDA-MB-231; 17 µM in the experiment with T47D; 3.3 µM in the experiment with HCT-15; 1.5 µM in the experiment with HT-29; 1.4 µM in the experiment with HeLa.
`CCCCCn1ccnc1-c1cc(OC)c(OC)c(OC)c1`: the IC50 was 57.9 µM with MDA-MB-468; 34.2 µM with MDA-MB-231; 64.4 µM in the experiment on T47D; greater than 100 µM with HCT-15; 60.1 µM in the experiment with HT-29; greater than 100 µM with HeLa.
Regarding `COc1cc(OC)cc(-n2ccnc2-c2cc(OC)c(OC)c(OC)c2)c1`, the IC50 in the experiment on MDA-MB-468 is 57.5 µM; with MDA-MB-231, 45.2 µM; in the experiment with T47D it was greater than 100 µM; with HCT-15, greater than 100 µM; in the experiment on HT-29, 74.5 µM; with HeLa it was 41.4 µM.
Consider `COc1cc(-c2nccn2-c2ccc(F)cc2)cc(OC)c1OC`, for which the IC50 in the experiment on MDA-MB-468 was 62.2 µM; in the experiment on MDA-MB-231, 38.4 µM; with T47D it was greater than 100 µM; with HCT-15, 68.6 µM; in the experiment on HT-29, 29.3 µM; in the experiment with HeLa, 17.5 µM.
On to `CCCCn1ccnc1-c1cc(OC)c(OC)c(OC)c1`, for which the IC50 with MDA-MB-468 is 44.1 µM; in the experiment with MDA-MB-231, 70.4 µM; in the experiment with T47D, greater than 100 µM; in the experiment on HCT-15 it was greater than 100 µM; in the experiment with HT-29, greater than 100 µM; in the experiment on HeLa, greater than 100 µM.
With `COc1cccc(-n2ccnc2-c2cc(OC)c(OC)c(OC)c2)c1`, the IC50 in the experiment on MDA-MB-468 was 10.4 µM; in the experiment on MDA-MB-231, 18.3 µM; in the experiment with T47D, 32.2 µM; with HCT-15, 17.1 µM; with HT-29, 18.9 µM; with HeLa, 11 µM.
Regarding `COc1ccc(C(=O)Nc2cc(OC)c(OC)c(OC)c2)cc1[N+](=O)[O-]`, the IC50 was 3 µM with MDA-MB-468; 5.7 µM in the experiment with MDA-MB-231; 6 µM in the experiment with T47D; 2 µM with HCT-15; 8.3 µM with HT-29; 3.7 µM in the experiment with HeLa.
As for `COc1ccc(OC(=O)c2cc(OC)c(OC)c(OC)c2)cc1[N+](=O)[O-]`, the IC50 with MDA-MB-468, in the experiment with MDA-MB-231, in the experiment with T47D, in the experiment on HCT-15, in the experiment with HT-29 and in the experiment on HeLa was greater than 100 µM in each case.
On to `COc1ccc(C(=O)Oc2cc(OC)c(OC)c(OC)c2)cc1N`, for which the IC50 with MDA-MB-468, with MDA-MB-231, in the experiment on T47D, in the experiment with HCT-15, with HT-29 and in the experiment on HeLa was greater than 100 µM throughout.
